System: LG0567-F671-PDC complex spheroids viability
Experiment: Anticancer human tumor LG0567-F671-PDC patient-derived lung adenocarcinoma cell line growth inhibition [RAS]
Settings: for IC50: curve of first compound; for viability, T/C: stronger effect = lower value
Summary of the method: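 Multi-cell-type spheroids: tumor cells plus HUVEC endothelial cells and mesenchymal stem cells. RAS-pathway inhibitors were combined with targeted agents, each dosed in half-log steps down from clinical Cmax, or from 10 microM when Cmax was unknown.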

[1] = second compound 0.00316 µM, first compound 0.0316 µM
[2] = second compound 0.00316 µM, first compound 0.1 µM
[3] = second compound 0.00316 µM, first compound 0.316 µM
[4] = second compound 0.00316 µM, first compound 1 µM
[5] = second compound 0.00316 µM, first compound 3.16 µM
[6] = second compound 0.00316 µM, first compound 10 µM
[7] = second compound 0.01 µM, first compound 0.0316 µM
[8] = second compound 0.01 µM, first compound 0.1 µM
[9] = second compound 0.01 µM, first compound 0.316 µM
[10] = second compound 0.01 µM, first compound 1 µM
[11] = second compound 0.01 µM, first compound 3.16 µM
[12] = second compound 0.01 µM, first compound 10 µM
[13] = second compound 0.0316 µM, first compound 0.0316 µM
[14] = second compound 0.0316 µM, first compound 0.1 µM
[15] = second compound 0.0316 µM, first compound 0.316 µM
[16] = second compound 0.0316 µM, first compound 1 µM
[17] = second compound 0.0316 µM, first compound 3.16 µM
[18] = second compound 0.0316 µM, first compound 10 µM
[19] = second compound 0.1 µM, first compound 0.0316 µM
[20] = second compound 0.1 µM, first compound 0.1 µM
[21] = second compound 0.1 µM, first compound 0.316 µM
[22] = second compound 0.1 µM, first compound 1 µM
[23] = second compound 0.1 µM, first compound 3.16 µM
[24] = second compound 0.1 µM, first compound 10 µM
[25] = second compound 0.316 µM, first compound 0.0316 µM
[26] = second compound 0.316 µM, first compound 0.1 µM
[27] = second compound 0.316 µM, first compound 0.316 µM
[28] = second compound 0.316 µM, first compound 1 µM
[29] = second compound 0.316 µM, first compound 3.16 µM
[30] = second compound 0.316 µM, first compound 10 µM
[31] = second compound 1 µM, first compound 0.0316 µM
[32] = second compound 1 µM, first compound 0.1 µM
[33] = second compound 1 µM, first compound 0.316 µM
[34] = second compound 1 µM, first compound 1 µM
[35] = second compound 1 µM, first compound 3.16 µM
[36] = second compound 1 µM, first compound 10 µM
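Note: spheroids exposed to compound for seven days before readout.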
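Throughout, for IC50: luminescence signal used as a proxy for viable cells.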

How did the IC50 (second compound 0.00316 µM) turn out when CC(C)NCC(C(=O)N1CCN(c2ncnc3c2C(C)CC3O)CC1)c1ccc(Cl)cc1 (stereo unspecified) + C=CC(=O)N1CCN(c2nc(OCC3CCCN3C)nc3c(F)c(-c4nc(N)cc(C)c4C(F)(F)F)c(Cl)cc23)C(C)C1 was run?
Its IC50 is under 31.6 nM.

What about the IC50 (second compound 0.01 µM) of the same compound?
Its IC50 is under 31.6 nM.

And the IC50 (second compound 0.0316 µM)?
Its IC50 is under 31.6 nM.

And the IC50 (second compound 0.1 µM)?
Its IC50 is under 31.6 nM.

And the IC50 (second compound 0.316 µM)?
The IC50 was under 31.6 nM.

What about the IC50 (second compound 1 µM) of the same compound?
Its IC50 is under 31.6 nM.

What about the viability, T/C [1] of the same compound?
Its viability, T/C is 16.6%.

What about the viability, T/C [2] of the same compound?
Its viability, T/C is 18.9%.

And the viability, T/C [3]?
Its viability, T/C is 14.9%.

What about the viability, T/C [4] of the same compound?
Its viability, T/C is 10.8%.

And the viability, T/C [5]?
Its viability, T/C is 10.3%.

And the viability, T/C [6]?
The viability, T/C was 9%.

And the viability, T/C [7]?
Its viability, T/C is 17%.

What about the viability, T/C [8] of the same compound?
The viability, T/C was 11.4%.

And the viability, T/C [9]?
Its viability, T/C is 10.8%.

What about the viability, T/C [10] of the same compound?
The viability, T/C was 9.98%.

And the viability, T/C [11]?
Its viability, T/C is 8.68%.

What about the viability, T/C [12] of the same compound?
Its viability, T/C is 8.55%.

What about the viability, T/C [13] of the same compound?
Its viability, T/C is 13.8%.

What about the viability, T/C [14] of the same compound?
Its viability, T/C is 13.7%.

And the viability, T/C [15]?
Its viability, T/C is 10.3%.

And the viability, T/C [16]?
The viability, T/C was 8.15%.

And the viability, T/C [17]?
Its viability, T/C is 7.81%.

And the viability, T/C [18]?
The viability, T/C was 7.64%.

And the viability, T/C [19]?
Its viability, T/C is 12.6%.

And the viability, T/C [20]?
Its viability, T/C is 13.6%.

And the viability, T/C [21]?
Its viability, T/C is 11.4%.

And the viability, T/C [22]?
The viability, T/C was 8.66%.

And the viability, T/C [23]?
Its viability, T/C is 8.46%.

What about the viability, T/C [24] of the same compound?
Its viability, T/C is 7.32%.

And the viability, T/C [25]?
Its viability, T/C is 14.9%.

And the viability, T/C [26]?
The viability, T/C was 11.9%.

And the viability, T/C [27]?
Its viability, T/C is 11.5%.

What about the viability, T/C [28] of the same compound?
Its viability, T/C is 9.81%.

And the viability, T/C [29]?
Its viability, T/C is 9.16%.

And the viability, T/C [30]?
Its viability, T/C is 7.21%.

And the viability, T/C [31]?
Its viability, T/C is 15.6%.

And the viability, T/C [32]?
Its viability, T/C is 11.9%.

What about the viability, T/C [33] of the same compound?
The viability, T/C was 12.7%.

What about the viability, T/C [34] of the same compound?
The viability, T/C was 9.59%.

And the viability, T/C [35]?
Its viability, T/C is 10%.

What about the viability, T/C [36] of the same compound?
Its viability, T/C is 9.16%.

Which IC50 (second compound 0.00316 µM) does the source give for CC(C)n1nc(-c2ccc3oc(N)nc3c2)c2c(N)ncnc21 + C=CC(=O)N1CCN(c2nc(OCC3CCCN3C)nc3c(F)c(-c4nc(N)cc(C)c4C(F)(F)F)c(Cl)cc23)C(C)C1 here?
The IC50 was under 0.316 nM.

And the IC50 (second compound 0.01 µM)?
The IC50 was under 0.316 nM.

What about the IC50 (second compound 0.0316 µM) of the same compound?
Its IC50 is under 0.316 nM.

What about the IC50 (second compound 0.1 µM) of the same compound?
Its IC50 is under 0.316 nM.

And the IC50 (second compound 0.316 µM)?
Its IC50 is under 0.316 nM.

What about the IC50 (second compound 1 µM) of the same compound?
Its IC50 is under 0.316 nM.

What about the viability, T/C (second compound 0.00316 µM, first compound 0.000316 µM) of the same compound?
Its viability, T/C is 13.7%.

What about the viability, T/C (second compound 0.00316 µM, first compound 0.001 µM) of the same compound?
Its viability, T/C is 17.2%.

What about the viability, T/C (second compound 0.00316 µM, first compound 0.00316 µM) of the same compound?
The viability, T/C was 11.4%.

What about the viability, T/C (second compound 0.00316 µM, first compound 0.01 µM) of the same compound?
The viability, T/C was 9.86%.

What about the viability, T/C [1] of the same compound?
Its viability, T/C is 7.75%.

And the viability, T/C [2]?
The viability, T/C was 6.24%.

And the viability, T/C (second compound 0.01 µM, first compound 0.000316 µM)?
Its viability, T/C is 12.6%.

What about the viability, T/C (second compound 0.01 µM, first compound 0.001 µM) of the same compound?
Its viability, T/C is 10.8%.

What about the viability, T/C (second compound 0.01 µM, first compound 0.00316 µM) of the same compound?
Its viability, T/C is 10.5%.

What about the viability, T/C (second compound 0.01 µM, first compound 0.01 µM) of the same compound?
The viability, T/C was 7.96%.

What about the viability, T/C [7] of the same compound?
The viability, T/C was 7.27%.

What about the viability, T/C [8] of the same compound?
The viability, T/C was 4.67%.

What about the viability, T/C (second compound 0.0316 µM, first compound 0.000316 µM) of the same compound?
Its viability, T/C is 12.2%.

And the viability, T/C (second compound 0.0316 µM, first compound 0.001 µM)?
Its viability, T/C is 11.5%.

What about the viability, T/C (second compound 0.0316 µM, first compound 0.00316 µM) of the same compound?
The viability, T/C was 9.25%.

And the viability, T/C (second compound 0.0316 µM, first compound 0.01 µM)?
The viability, T/C was 10.8%.

And the viability, T/C [13]?
The viability, T/C was 6.75%.

What about the viability, T/C [14] of the same compound?
The viability, T/C was 4.77%.

What about the viability, T/C (second compound 0.1 µM, first compound 0.000316 µM) of the same compound?
The viability, T/C was 11.1%.

And the viability, T/C (second compound 0.1 µM, first compound 0.001 µM)?
The viability, T/C was 10.7%.

What about the viability, T/C (second compound 0.1 µM, first compound 0.00316 µM) of the same compound?
Its viability, T/C is 10.9%.

And the viability, T/C (second compound 0.1 µM, first compound 0.01 µM)?
The viability, T/C was 8.59%.

And the viability, T/C [19]?
The viability, T/C was 7.47%.

What about the viability, T/C [20] of the same compound?
The viability, T/C was 4.81%.

What about the viability, T/C (second compound 0.316 µM, first compound 0.000316 µM) of the same compound?
The viability, T/C was 11.6%.

What about the viability, T/C (second compound 0.316 µM, first compound 0.001 µM) of the same compound?
The viability, T/C was 10.8%.

What about the viability, T/C (second compound 0.316 µM, first compound 0.00316 µM) of the same compound?
Its viability, T/C is 9.88%.

And the viability, T/C (second compound 0.316 µM, first compound 0.01 µM)?
The viability, T/C was 7.87%.

And the viability, T/C [25]?
Its viability, T/C is 6.07%.

And the viability, T/C [26]?
Its viability, T/C is 4.55%.

And the viability, T/C (second compound 1 µM, first compound 0.000316 µM)?
The viability, T/C was 14.2%.

What about the viability, T/C (second compound 1 µM, first compound 0.001 µM) of the same compound?
Its viability, T/C is 11.4%.

What about the viability, T/C (second compound 1 µM, first compound 0.00316 µM) of the same compound?
The viability, T/C was 14.3%.

And the viability, T/C (second compound 1 µM, first compound 0.01 µM)?
Its viability, T/C is 10.9%.

What about the viability, T/C [31] of the same compound?
The viability, T/C was 7.1%.

And the viability, T/C [32]?
Its viability, T/C is 5.83%.

What does the source list for C[C@@H](NC(=O)c1ncnc(N)c1Cl)c1ncc(C(=O)Nc2cc(C(F)(F)F)c(Cl)cn2)s1 + C=CC(=O)N1CCN(c2nc(OCC3CCCN3C)nc3c(F)c(-c4nc(N)cc(C)c4C(F)(F)F)c(Cl)cc23)C(C)C1?
IC50 (second compound 0.00316 µM): < 31.6 nM; IC50 (second compound 0.01 µM): < 31.6 nM; IC50 (second compound 0.0316 µM): < 31.6 nM; IC50 (second compound 0.1 µM): < 31.6 nM; IC50 (second compound 0.316 µM): < 31.6 nM; IC50 (second compound 1 µM): < 31.6 nM; viability, T/C [1]: 23%; viability, T/C [2]: 21.9%; viability, T/C [3]: 19.2%; viability, T/C [4]: 25.3%; viability, T/C [5]: 27.4%; viability, T/C [6]: 22.3%; viability, T/C [7]: 18.3%; viability, T/C [8]: 16.7%; viability, T/C [9]: 24.5%; viability, T/C [10]: 19.2%; viability, T/C [11]: 22.8%; viability, T/C [12]: 20.4%; viability, T/C [13]: 17.1%; viability, T/C [14]: 17.3%; viability, T/C [15]: 19.1%; viability, T/C [16]: 19.3%; viability, T/C [17]: 20.1%; viability, T/C [18]: 18%; viability, T/C [19]: 16.3%; viability, T/C [20]: 14.9%; viability, T/C [21]: 15.8%; viability, T/C [22]: 18.3%; viability, T/C [23]: 19%; viability, T/C [24]: 18.5%; viability, T/C [25]: 15.5%; viability, T/C [26]: 16.1%; viability, T/C [27]: 16.2%; viability, T/C [28]: 18.5%; viability, T/C [29]: 22.2%; viability, T/C [30]: 23%; viability, T/C [31]: 16.7%; viability, T/C [32]: 17.4%; viability, T/C [33]: 20.4%; viability, T/C [34]: 17.2%; viability, T/C [35]: 19.8%; viability, T/C [36]: 20.8%

— PubChem BioAssay AID2060889 (Molecular Pharmacology Branch, DTP, NCI, 2025)
